The values below come from US20040063790A1, “Methods for inhibition of angiogenesis” (The Scripps Research Institute, priority 1996, published 2004).

Where a SMILES comes first, the peptide text is derived from it. [ ]: non-standard residue; d: D form.

The test system of assay [1] is bFGF-induced angiogenesis. Description: CAM assay, growth factor-induced angiogenesis, topical application. The settings on record: 80 μg peptide topically at 0, 24 and 48 hrs; viewed at 72 hours. It is filed as in vivo, chick. Here is the method:
J. Pathol., 79:597 (1975). CAMs were prepared from chick embryos for subsequent induction of angiogenesis and inhibition thereof as described in Examples 4 and 5, respectively. Ten day old chick embryos were obtained from McIntyre Poultry (Lakeside, Calif.) and incubated at 37° C. with 60% humidity. A small hole was made through the shell at the end of the egg directly over the air sac with the use of a small crafts drill (Dremel, Division of Emerson Electric Co. Racine Wis.). A second hole was drilled on the broad side of the egg in a region devoid of embryonic blood vessels determined previously by candling the egg. […]
Angiogenesis was induced by placing a 5 millimeter (mm)×5 mm Whatman filter disk (Whatman Filter paper No.1) saturated with Hanks Balanced Salt Solution (HBSS, GIBCO, Grand Island, N.Y.) or HBSS containing 150 nanograms/milliliter (ng/ml) recombinant basic fibroblast growth factor (bFGF) (Genzyme, Cambridge, Mass.) on the CAM of a 10-day chick embryo in a region devoid of blood vessels and the windows were latter sealed with tape. […] For assays where inhibition of angiogenesis ws evaluated with intravenous injections of antagonists, angiogenesis was first induced with 1-2 μg/ml bFGF in fibroblast growth medium. Angiogenesis was monitored by photomicroscopy after 72 hours. […]
Quantification was performed in a double blind manner by at least two independent observers. […]

The test system of assay [2] is tumor-induced angiogenesis. Description: CAM assay, tumor-induced angiogenesis, intravenous application. Type of assay: in vivo, chick. The note with it: intravenous injection. Here is the method:
Angiogenesis was induced in the CAM assay system by direct apposition of a tumor fragment on the CAM. Preparation of the chick embryo CAM was identical to the procedure described above. Instead of a filter paper disk, a 50 milligram (mg) to 55 mg in weight fragment of one of human melanoma tumor M21-L, human lung carcinoma tumor UCLAP-3, human pancreatic carcinoma cell line FG (Cheresh et al., Cell 58:945-953, 1989), or human laryngeal carcinoma cell line HEp3, all of which are αvβ3 negative tumors, was placed on the CAM in an area originally devoid of blood vessels.
The M21-L human melanoma cell line, UCLAP-3 human lung carcinoma cell line, FG pancreatic carcinoma cell line, or HEp3 human laryngeal carcinoma cell line, all αvβ3 negative, were used to grow the solid human tumors on the CAMs of chick embryos. A single cell suspension of 8×10^6 M21-L, UCLAP-3, and FB or 5×10^5 HEp3 cells was first applied to the CAMs in a total volume of 30 μl of sterile HBSS. The windows were sealed with tape and the embryos were incubated for 7 days to allow growth of human tumor lesions. At the end of 7 days, now a 17-day embryo, the tumors were resected from the CAMs and trimmed free of surrounding CAM tissue. […]
The effects of peptide exposure to tumor-induced vasculature in the CAM assay system was also assessed. […]

The subject of assay [3] is retinal neovascularization. The settings on record: Hammes et al., Nature Med. 1996; cited from earlier work.
The target of the next assay is αvβ3 integrin (Homo sapiens, UniProt P05106+P06756). The note with it: Pfaff et al. 1994; not to the αIIbβ3 or α5β1 integrins; cited from earlier work.
Sequence of αvβ3 integrin (P06756 31-889 limits assumed): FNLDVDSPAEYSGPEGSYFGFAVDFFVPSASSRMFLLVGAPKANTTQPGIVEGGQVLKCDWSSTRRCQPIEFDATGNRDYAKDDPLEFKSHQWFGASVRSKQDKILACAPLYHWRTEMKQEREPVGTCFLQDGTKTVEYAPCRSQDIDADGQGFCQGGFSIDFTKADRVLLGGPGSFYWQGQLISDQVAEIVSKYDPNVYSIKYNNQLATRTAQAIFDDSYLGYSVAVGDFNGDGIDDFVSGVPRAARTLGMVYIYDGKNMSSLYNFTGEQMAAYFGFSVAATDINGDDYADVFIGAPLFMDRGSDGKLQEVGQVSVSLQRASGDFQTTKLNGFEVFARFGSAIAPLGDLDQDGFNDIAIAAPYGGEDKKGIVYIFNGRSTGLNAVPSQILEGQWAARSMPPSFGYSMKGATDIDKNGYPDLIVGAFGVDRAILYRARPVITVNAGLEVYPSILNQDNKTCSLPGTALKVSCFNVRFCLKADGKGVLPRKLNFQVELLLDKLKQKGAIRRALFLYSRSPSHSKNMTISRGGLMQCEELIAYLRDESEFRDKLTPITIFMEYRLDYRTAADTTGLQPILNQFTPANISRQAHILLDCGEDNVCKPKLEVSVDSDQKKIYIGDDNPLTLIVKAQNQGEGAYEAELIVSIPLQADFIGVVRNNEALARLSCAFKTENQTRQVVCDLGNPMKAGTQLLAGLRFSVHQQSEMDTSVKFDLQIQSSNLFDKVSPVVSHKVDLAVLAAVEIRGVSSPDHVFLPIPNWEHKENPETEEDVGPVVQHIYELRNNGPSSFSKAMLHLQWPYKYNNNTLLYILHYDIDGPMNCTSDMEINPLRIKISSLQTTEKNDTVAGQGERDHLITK
Sequence of αvβ3 integrin (P06756 891-1048 partner limits assumed): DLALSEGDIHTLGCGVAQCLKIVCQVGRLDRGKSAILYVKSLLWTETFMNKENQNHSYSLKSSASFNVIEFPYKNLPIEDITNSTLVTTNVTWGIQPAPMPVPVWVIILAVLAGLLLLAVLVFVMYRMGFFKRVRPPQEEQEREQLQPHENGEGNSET
Sequence of αvβ3 integrin (P05106 27-788): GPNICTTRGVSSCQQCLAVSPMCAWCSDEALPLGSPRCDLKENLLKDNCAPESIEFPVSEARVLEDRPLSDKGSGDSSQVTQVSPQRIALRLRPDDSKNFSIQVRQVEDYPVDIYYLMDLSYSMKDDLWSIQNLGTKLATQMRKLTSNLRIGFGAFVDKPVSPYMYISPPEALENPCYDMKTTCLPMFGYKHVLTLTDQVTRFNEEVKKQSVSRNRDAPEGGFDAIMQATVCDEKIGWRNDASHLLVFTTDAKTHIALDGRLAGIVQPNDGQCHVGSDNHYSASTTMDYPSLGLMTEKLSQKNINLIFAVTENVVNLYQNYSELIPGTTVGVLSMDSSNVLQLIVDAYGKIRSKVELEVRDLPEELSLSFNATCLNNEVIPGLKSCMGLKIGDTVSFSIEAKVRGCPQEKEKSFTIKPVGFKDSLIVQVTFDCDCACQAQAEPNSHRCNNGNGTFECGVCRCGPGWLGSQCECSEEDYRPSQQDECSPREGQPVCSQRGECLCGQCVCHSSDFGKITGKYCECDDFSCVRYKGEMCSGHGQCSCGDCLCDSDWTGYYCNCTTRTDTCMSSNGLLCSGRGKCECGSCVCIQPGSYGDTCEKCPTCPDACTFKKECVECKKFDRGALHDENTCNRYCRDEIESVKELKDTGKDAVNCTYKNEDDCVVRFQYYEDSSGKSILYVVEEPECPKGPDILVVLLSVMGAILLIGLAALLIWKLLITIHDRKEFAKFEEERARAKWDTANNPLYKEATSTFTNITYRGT
Another assay addresses T1, αvβ3 (Homo sapiens, UniProt P05106+P06756).
T1 construct: selected purified integrins were separately immobilized in Titertek microtiter wells
Description: Ligand-receptor binding assay, immobilized αvβ3. An excerpt:
(§1) Herein described is a method of identifying antagonists in a ligand-receptor binding assay in which the receptor is immobilized to a solid support and the ligand and antagonist are soluble. Also described is a ligand-receptor binding assay in which the ligand is immobilized to a solid support and the receptor and antagonists are soluble.
(§2) Briefly, selected purified integrins were separately immobilized in Titertek microtiter wells at a coating concentration of 50 nanograms (ng) per well. The purification of the receptors used in the ligand-receptor binding assays are well known in the art and are readily obtainable with methods familiar to one of ordinary skill in the art. After incubation for 18 hours at 4° C., nonspecific binding sites on the plate were blocked with 10 milligrams/milliliter (mg/ml) of bovine serum albumin (BSA) in Tris-buffered saline. […] Radiolabeled ligands were used at concentrations of 1 nM and binding was challenged separately with unlabeled synthetic peptides.
(§3) Following a three hour incubation, free ligand was removed by washing and bound ligand was detected by gamma counting. […] The IC50 data in micromoles (IC50 μM) are expressed as the average of duplicate data points±the standard deviation as shown in Table 2.

For the next assay, the target named is T2, αIIbβ3 (Homo sapiens, UniProt P05106+P08514).
T2 construct: selected purified integrins were separately immobilized in Titertek microtiter wells
T2 sequence (P08514 32-887 limits assumed): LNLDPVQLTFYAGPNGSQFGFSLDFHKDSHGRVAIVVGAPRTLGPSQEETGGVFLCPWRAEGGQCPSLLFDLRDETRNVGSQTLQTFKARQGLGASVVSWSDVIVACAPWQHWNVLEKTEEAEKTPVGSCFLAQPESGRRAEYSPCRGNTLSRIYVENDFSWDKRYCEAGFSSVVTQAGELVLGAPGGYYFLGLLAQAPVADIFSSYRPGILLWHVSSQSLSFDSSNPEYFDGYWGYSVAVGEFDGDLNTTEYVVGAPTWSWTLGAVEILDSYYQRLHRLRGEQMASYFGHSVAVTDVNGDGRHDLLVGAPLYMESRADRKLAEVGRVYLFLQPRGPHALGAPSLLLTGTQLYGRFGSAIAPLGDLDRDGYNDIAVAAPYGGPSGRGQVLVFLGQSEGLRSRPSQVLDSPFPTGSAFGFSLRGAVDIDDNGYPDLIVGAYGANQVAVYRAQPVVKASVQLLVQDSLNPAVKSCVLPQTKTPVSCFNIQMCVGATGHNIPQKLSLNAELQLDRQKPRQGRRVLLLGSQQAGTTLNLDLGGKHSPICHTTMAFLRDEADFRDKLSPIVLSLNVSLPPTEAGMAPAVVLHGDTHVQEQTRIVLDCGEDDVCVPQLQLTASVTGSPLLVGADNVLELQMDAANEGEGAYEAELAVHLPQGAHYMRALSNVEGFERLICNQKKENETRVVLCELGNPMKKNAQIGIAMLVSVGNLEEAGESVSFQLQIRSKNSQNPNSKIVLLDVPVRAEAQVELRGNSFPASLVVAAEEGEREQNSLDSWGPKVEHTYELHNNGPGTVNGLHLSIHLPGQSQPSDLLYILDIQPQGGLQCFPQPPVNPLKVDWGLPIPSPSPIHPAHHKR
T2 sequence (P08514 891-1039 partner limits assumed): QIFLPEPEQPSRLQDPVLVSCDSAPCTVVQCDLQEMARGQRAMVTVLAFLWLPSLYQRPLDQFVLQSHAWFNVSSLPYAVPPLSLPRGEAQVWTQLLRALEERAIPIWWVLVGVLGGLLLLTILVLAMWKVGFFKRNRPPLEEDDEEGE
T2 sequence (P05106 27-788): as the sequence (P05106 27-788) above
Description: Ligand-receptor binding assay, immobilized αIIbβ3. The note with it: radiolabeled fibrinogen; average of duplicate data points ± standard deviation; read-out: αIIbβ3 (IC50 μM).
Excerpt: as §1, §2, §3

A further assay has as its system M21-L melanoma tumor. Description: In vivo chimeric mouse:human assay. Also on record: species or system SCID mouse. The settings on record: intravenous, FIG. 18. Here is the method: An in vivo chimeric mouse:human model was generated by replacing a portion of skin from a SCID mouse with human neonatal foreskin (FIG. 4). After the skin graft was established, the human foreskin was inoculated with carcinoma cells. After a measurable tumor was established, either an αvβ3 antagonist or PBS was injected into the mouse tail vein. Following a 2-3 week period, the tumor was excised and analyzed by weight and histology.
The in vivo chimeric mouse:human model is prepared essentially as described in Yan, et al., J. Clin. Invest., 91:986-996 (1993). Briefly, a 2 cm^2 square area of skin was surgically removed from a SCID mouse (6-8 weeks of age) and replaced with a human foreskin. The mouse was anesthetized and the hair removed from a 5 cm^2 area on each side of the lateral abdominal region by shaving. Two circular graft beds of 2 cm^2 were prepared by removing the full thickness of skin down to the fascia. Full thickness human skin grafts of the same size derived from human neonatal foreskin were placed onto the wound beds and sutured into place. […]
In a procedure similar to that described above for monoclonal antibodies, peptide antagonists of αvβ3 were injected intravenously into the tail vein of SCID mice having measurable M21-L tumors. […] The mean volume and weight of resected tumors following treatment were determined with the results respectively shown in FIGS. 19A and 19B.

T1 sequence (P06756 31-889 limits assumed): as the sequence (P06756 31-889 limits assumed) above
T1 sequence (P06756 891-1048 partner limits assumed): as the sequence (P06756 891-1048 partner limits assumed) above
T1 sequence (P05106 27-788): as the sequence (P05106 27-788) above

With `CC(C)[C@@H]1NC(=O)[C@@H](Cc2ccccc2)NC(=O)[C@H](CC(=O)O)NC(=O)CNC(=O)[C@H](CCCNC(=N)N)NC1=O` [Peptide 62184, cyclo (RGDfV)], the “effect on bFGF-induced blood vessel formation” value in assay [1] is recorded as “formation of blood vessels was inhibited”. Further, in assay [2], the “inhibition of tumor-induced blood vessel formation” value is on record as “demonstrated to inhibit angiogenesis”.

As for cyclic RGDfV, the “inhibition of retinal neovascularization” value in assay [3] is recorded as “inhibited retinal neovascularization”. Moreover, the “inhibition of fibrinogen binding to integrins” value at αvβ3 integrin is “specifically inhibited binding of fibrinogen to the αvβ3 integrin”.

On to `CC(C)[C@@H]1NC(=O)[C@H](Cc2ccccc2)NC(=O)[C@H](CC(=O)O)NC(=O)[C@@H](C)NC(=O)[C@H](CCCNC(=N)N)NC1=O` [Peptide 62186, cyclo (RaDFV)] (cyclo(R[dA]DFV)), for which, on αvβ3 (comparison of half-maximal concentrations of Table 2), the “preference of inhibition of fibrinogen binding, αvβ3 versus αIIbβ3” value is “either not as effective in blocking fibrinogen binding to αvβ3 or exhibited preferential inhibition of fibrinogen binding to αIIbβ3”. Also, the IC50 (commonly the concentration at which inhibition is half-maximal) on αvβ3 (radiolabeled fibrinogen, average of duplicate data points ± standard deviation, read-out: αvβ3 (IC50 μM)) was found to be 57.5 ± 7.84 µM; at αIIbβ3, 100 ± 0.001 µM. Moreover, in assay [1], the “effect on bFGF-induced blood vessel formation” value is reported as “remained undisturbed”.

B1: LM609: monoclonal antibody specific for αvβ3 (anti-αvβ3) (antibody, V domains shown)
VH: EVQLEESGGGLVKPGGSLKLSCAASGFAFSSYDMSWVRQIPEKRLEWVAKVSSGGGSTYYLDTVQGRFTISRDNAKNTLYLQMSSLNSEDTAMYYCARHNYGSFAYWGQGTLVTVSA
VL: ELVMTQTPATLSVTPGDSVSLSCRASQSISNHLHWYQQKSHESPRLLIKYASQSISGIPSRFSGSGSGTDFTLSINSVETEDFGMYFCQQSNSWPHTFGGGTKLEIKRA
On to B1, for which the tumor volume entry with M21-L melanoma tumor is reported as “approximately 60 mm^3”.
